Results taken from article PMC11790914, “Chemogenomics for steroid hormone receptors (NR3)” (Communications Chemistry, 2025).
“And” between values parts separate entries of the source, which are not always exact repeats. Identical values can stand only once.

Legend:
GSK3B = target: T1, GSK3B (Homo sapiens, UniProt P49841); assay: Liability panel screening by DSF: GSK3B; assay type: binding; settings: DSF, 20 µM, n=2; read-out: Mean ΔTM GSK3B
T1 construct: made in house

[1] = tested on: NF-κB activity in HEK293 NF-κB reporter cells; assay: NF-kB activity assay (GFP reporter, ionomycin/PMA); assay type: cell-based; settings: for Mean NFκB response: n=3
Method in brief: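 HEK293 NF-κB GFP reporter cells given compound in 0.1% DMSO for 4 h, then stimulated with ionomycin 100 ng/mL plus PMA 10 ng/mL. Imaged every 90 min over 24 h; GFP-positive cell count normalized to confluence, three independent biological replicates.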

AURKA = target: T2, AURKA (Homo sapiens, UniProt O14965); assay: Liability panel screening by DSF: AURKA; assay type: binding; settings: DSF, 20 µM, n=2; read-out: Mean ΔTM AURKA
T2 construct: made in house
T2 sequence (O14965 1-403): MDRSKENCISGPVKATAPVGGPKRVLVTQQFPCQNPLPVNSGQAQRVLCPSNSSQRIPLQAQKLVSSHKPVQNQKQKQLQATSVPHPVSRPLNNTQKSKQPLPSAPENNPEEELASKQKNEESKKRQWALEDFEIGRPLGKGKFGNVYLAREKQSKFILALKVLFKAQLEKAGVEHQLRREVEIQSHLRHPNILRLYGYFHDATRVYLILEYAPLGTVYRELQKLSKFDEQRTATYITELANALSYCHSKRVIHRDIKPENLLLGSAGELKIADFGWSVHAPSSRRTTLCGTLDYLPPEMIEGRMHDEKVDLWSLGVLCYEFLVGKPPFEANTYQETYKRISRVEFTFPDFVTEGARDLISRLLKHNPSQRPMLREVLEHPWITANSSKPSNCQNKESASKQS
Experimental: (§1) Reference ligands are listed in the methods section.
(§2) In-house produced recombinantly expressed proteins[62] of the liability panel targets were diluted in a buffer containing 10 mM HEPES (pH 7.5) and 500 mM NaCl to a concentration of 2 µM. SYPRO Orange (Invitrogen, Carlsbad, California, USA; #S6650) as a fluorescence probe was added at a 1:1000 dilution to the proteins. […] Temperature-dependent unfolding profiles were measured on a QuantStudio™ 5 real-time PCR machine (Thermo Fisher Scientific, Waltham, Massachusetts, USA; #A28140). […] The temperature was increased 3 °C per minute to a maximum temperature of 85 °C. Experiments were run as technical duplicates. […] Data were analyzed with the internal Thermal Shift Software (version 1.4, Thermo Fisher Scientific) using the Boltzmann equitation to determine the inflection point of the transition curve. Differences in melting temperature are given as ∆Tm in K. […]
(§3) scanning fluorimetry (DSF).
(§4) a concentration of 20 µM.

HEK293T cells [2] = assay: Cytotoxicity: apoptosis induction (caspase-3/7 DEVD fluorogenic DNA dye); settings: 1 µM; HEK293T, 24 h; apoptotic cell count normalized to 0.1% DMSO; single replicates
MAPK1 = target: T3, MAPK1 (Homo sapiens, UniProt P28482); assay: Liability panel screening by DSF: MAPK1; assay type: binding; settings: DSF, 20 µM, n=2; read-out: Mean ΔTM MAPK1
T3 construct: made in house
Experimental: as §1, §2, §3, §4

CSNK1D = target: T4, CSNK1D (Homo sapiens, UniProt P48730); assay: Liability panel screening by DSF: CSNK1D; assay type: binding; settings: DSF, 20 µM, n=2; read-out: Mean ΔTM CSNK1D
T4 construct: made in house
Experimental: as §1, §2, §3, §4

HEK293T cells [3] = assay: Cytotoxicity: growth-rate (change in confluence over 24 h); settings: 1 µM, normalized to 0.1% DMSO control, single replicates (n=1...)
Gal4-VP16 = assay type: cell-based; settings: 1 µM; vs. DMSO ctrl; single replicates n=1-3
HEK293T cells [4] = assay: Cytotoxicity: necrosis induction (red fluorescent dye for permeable plasma membranes); assay type: cell-based; settings: 1 µM, 24 h, necrotic cell count normalized to 0.1% DMSO, single replicates;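 also: compounds applied in DMEM high glucose with 0.1% FCS and 0.1% DMSO, necrotic HEK293T cells counted by red staining of cells whose plasma membranes had become permeable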
ABL1 = target: T5, ABL1 (Homo sapiens, UniProt P00519); assay: Liability panel screening by DSF: ABL1; assay type: binding; settings: DSF, 20 µM, n=2; read-out: Mean ΔTM ABL1
T5 construct: made in house
Experimental: as §1, §2, §3, §4

TRIM24 = target: T6, TRIM24 (Homo sapiens, UniProt O15164); assay: Liability panel screening by DSF: TRIM24; assay type: binding; settings: DSF, 20 µM, n=2; read-out: Mean ΔTM TRIM24
T6 construct: This panel comprised ten highly ligandable kinases and bromodomains; made in house
T6 sequence (O15164 899-1004 limits assumed): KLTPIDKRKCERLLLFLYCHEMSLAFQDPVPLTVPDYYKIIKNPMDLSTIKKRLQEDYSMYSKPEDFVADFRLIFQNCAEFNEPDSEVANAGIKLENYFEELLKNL
Experimental: as §1, §2, §3, §4

CDK2 = target: T7, CDK2 (Homo sapiens, UniProt P24941); assay: Liability panel screening by DSF: CDK2; assay type: binding; settings: DSF, 20 µM, n=2; read-out: Mean ΔTM CDK2
T7 construct: made in house
Experimental: as §1, §2, §3, §4

[5] = tested on: ATF6 activity in Hela ATF6 reporter cells; assay: Endoplasmic reticulum stress assay (ATF6 Renilla luciferase reporter, tunicamycin); assay type: cell-based
Method in brief: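 HeLa ATF6 Renilla reporter cells were pretreated 4 h with compounds in 0.1% DMSO, then stimulated with tunicamycin (100 ng/mL) for 18 h. Renilla luminescence (DualGlo) was normalized to 0.1% DMSO control; five independent experiments.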

BRD4 = target: T8, BRD4 (Homo sapiens, UniProt O60885); assay: Liability panel screening by DSF: BRD4; assay type: binding; settings: DSF, 20 µM, n=2; read-out: Mean ΔTM BRD4
T8 construct: This panel comprised ten highly ligandable kinases and bromodomains; made in house
Experimental: as §1, §2, §3, §4

HEK293T cells [6] = assay: Cytotoxicity: metabolic activity (WST-8 / CCK-8 assay); settings: 1 µM; HEK293T, 24 h; WST-8; normalized to 0.1% DMSO; single replicates
Experimental: Cells were incubated with the test compounds at the indicated concentrations solubilized with 0.1% DMSO for 24 h. Growth-rate was determined based on the change in confluence over 24 h normalized to the change in confluence of cells treated with the 0.1% DMSO control (n = 10). Metabolic activity was determined with a water-soluble tetrazolium-8 (WST-8) assay (n = 8) after 24 h treatment. Apoptotic cells were detected with a fluorogenic DNA dye coupled to the caspase-3/7 recognition sequence (DEVD) after 24 h treatment and the apoptotic cell count was normalized to 0.1% DMSO treated cells (n = 6).
HEK293T cells (German Collection of Microorganisms and Cell Culture GmbH, DSMZ; #ACC305) were cultured in DMEM high glucose, supplemented with 10% fetal calf serum (FCS), sodium pyruvate (1 mM), penicillin (100 µ/mL) and streptomycin (100 µg/mL) at 37 °C and 5% (v/v) CO2, and seeded in pre-coated (10 µg/mL collagen G solution (Merck KgaA; #L7213) for 30 min at 37 °C) 96-well plates (2 × 10^5 cells per well). After 24 h, the cells were treated with the respective NR3 CG compound candidate at the recommended concentration, bexarotene (100 µM) or doxorubicin (30 µM) as positive controls in DMEM high glucose supplemented with 0.1% FCS, penicillin (100 µ/mL), streptomycin (100 µg/mL) and 0.1% DMSO, or 0.1% DMSO alone as an untreated control. Each sample was prepared in at least four biologically independent replicates. […] Thereafter, the medium was aspirated and the cells were incubated for 3 h with 90 µL DMEM high glucose supplemented with 0.2% FCS, penicillin (100 µ/mL) and streptomycin (100 µg/mL) and additionally containing 10 µL Cell Counting Kit 8 solution (CCK-8; MedChemExpress, Monmouth Junction, New York, USA; #HY-K0301), and absorbance was measured at 1 h, 2 h and 3 h of incubation at 450 nm on a Tecan Spark Cyto to assess metabolic activity of the cells. Before drug administration, after the first medium exchange, 24 h after drug administration, and after fluorescence imaging cell confluence was assessed using the Tecan Spark Cyto, to account for changes in cell confluence due to drug administration and cell handling. Compound effects on cell confluence, apoptosis, metabolic activity and necrosis were normalized to the vehicle control of each biological replicate individually.

BRPF1 = target: T9, BRPF1 (Homo sapiens, UniProt P55201); assay: Liability panel screening by DSF: BRPF1; assay type: binding; settings: DSF, 20 µM, n=2; read-out: Mean ΔTM BRPF1
T9 construct: This panel comprised ten highly ligandable kinases and bromodomains; made in house
T9 sequence (P55201 628-732 limits assumed): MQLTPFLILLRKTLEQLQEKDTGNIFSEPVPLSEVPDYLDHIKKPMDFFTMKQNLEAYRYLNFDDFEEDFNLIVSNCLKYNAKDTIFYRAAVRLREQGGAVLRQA
Experimental: as §1, §2, §3, §4

FGFR3 = target: T10, FGFR3 (Homo sapiens, UniProt P22607); assay: Liability panel screening by DSF: FGFR3; assay type: binding; settings: DSF, 20 µM, n=2; read-out: Mean ΔTM FGFR3
T10 construct: made in house
Experimental: as §1, §2, §3, §4

T1 sequence (P49841 whole entry, species assumed): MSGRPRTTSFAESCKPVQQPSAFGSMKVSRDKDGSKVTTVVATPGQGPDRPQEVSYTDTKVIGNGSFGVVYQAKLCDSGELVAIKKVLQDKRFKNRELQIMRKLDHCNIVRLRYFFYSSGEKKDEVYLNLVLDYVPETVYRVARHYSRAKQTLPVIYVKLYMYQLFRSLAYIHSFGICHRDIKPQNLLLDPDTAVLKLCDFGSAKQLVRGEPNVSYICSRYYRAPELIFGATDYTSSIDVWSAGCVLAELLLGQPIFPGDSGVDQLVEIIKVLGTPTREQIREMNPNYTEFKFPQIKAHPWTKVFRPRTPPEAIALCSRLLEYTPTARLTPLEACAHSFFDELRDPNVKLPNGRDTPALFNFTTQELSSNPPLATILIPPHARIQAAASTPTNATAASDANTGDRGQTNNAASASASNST
T5 sequence (P00519 whole entry, species assumed): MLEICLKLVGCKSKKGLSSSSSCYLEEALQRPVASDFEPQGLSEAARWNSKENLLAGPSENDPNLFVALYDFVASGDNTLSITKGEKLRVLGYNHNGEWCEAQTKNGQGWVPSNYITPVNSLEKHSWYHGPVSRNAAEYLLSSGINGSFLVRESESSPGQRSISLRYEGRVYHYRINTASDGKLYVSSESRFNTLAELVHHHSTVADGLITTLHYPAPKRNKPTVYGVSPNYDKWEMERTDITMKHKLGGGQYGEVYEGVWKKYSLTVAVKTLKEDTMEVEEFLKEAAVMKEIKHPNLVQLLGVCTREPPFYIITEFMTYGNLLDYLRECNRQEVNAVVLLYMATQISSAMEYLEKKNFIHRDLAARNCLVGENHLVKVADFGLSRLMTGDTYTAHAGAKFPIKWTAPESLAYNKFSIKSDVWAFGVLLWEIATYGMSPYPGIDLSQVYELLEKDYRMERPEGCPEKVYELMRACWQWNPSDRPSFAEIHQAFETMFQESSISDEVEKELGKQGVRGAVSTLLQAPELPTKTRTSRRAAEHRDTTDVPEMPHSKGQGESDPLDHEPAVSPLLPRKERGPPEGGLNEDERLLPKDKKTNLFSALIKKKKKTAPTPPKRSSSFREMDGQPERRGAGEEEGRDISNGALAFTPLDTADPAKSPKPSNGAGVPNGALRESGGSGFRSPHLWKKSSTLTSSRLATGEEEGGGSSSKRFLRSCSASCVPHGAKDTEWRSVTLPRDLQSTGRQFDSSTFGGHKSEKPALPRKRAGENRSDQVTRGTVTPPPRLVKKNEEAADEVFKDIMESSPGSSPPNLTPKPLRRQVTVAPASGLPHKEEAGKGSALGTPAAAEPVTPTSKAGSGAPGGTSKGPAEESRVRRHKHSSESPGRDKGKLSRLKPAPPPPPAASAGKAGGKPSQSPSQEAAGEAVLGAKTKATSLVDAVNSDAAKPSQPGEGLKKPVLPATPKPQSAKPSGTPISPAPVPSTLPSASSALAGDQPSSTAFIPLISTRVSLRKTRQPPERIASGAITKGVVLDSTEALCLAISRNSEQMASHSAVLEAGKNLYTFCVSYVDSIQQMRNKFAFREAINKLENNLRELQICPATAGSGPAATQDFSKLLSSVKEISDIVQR
T10 sequence (P22607 23-806, species assumed): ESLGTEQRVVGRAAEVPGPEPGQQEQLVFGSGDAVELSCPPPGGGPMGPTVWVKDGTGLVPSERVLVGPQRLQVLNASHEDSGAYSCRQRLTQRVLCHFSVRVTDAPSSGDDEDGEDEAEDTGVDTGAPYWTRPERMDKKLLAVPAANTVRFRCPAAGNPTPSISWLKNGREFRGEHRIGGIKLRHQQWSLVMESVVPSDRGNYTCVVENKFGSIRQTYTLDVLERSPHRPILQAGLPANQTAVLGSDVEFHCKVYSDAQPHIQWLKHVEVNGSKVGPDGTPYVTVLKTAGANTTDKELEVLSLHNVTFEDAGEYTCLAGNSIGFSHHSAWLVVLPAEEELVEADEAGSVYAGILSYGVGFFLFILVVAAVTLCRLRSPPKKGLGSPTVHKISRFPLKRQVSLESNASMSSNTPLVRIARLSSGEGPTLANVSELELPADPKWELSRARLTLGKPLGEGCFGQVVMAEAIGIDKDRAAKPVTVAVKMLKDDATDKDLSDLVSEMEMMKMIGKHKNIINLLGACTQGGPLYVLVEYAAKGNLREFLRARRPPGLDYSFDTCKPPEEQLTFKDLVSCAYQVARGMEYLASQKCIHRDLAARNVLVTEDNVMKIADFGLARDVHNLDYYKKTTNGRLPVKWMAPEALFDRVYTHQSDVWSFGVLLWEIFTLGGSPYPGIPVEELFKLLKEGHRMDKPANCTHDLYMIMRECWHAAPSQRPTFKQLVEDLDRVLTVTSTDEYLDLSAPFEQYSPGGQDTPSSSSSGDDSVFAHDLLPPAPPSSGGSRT
T3 sequence (P28482 whole entry, species assumed): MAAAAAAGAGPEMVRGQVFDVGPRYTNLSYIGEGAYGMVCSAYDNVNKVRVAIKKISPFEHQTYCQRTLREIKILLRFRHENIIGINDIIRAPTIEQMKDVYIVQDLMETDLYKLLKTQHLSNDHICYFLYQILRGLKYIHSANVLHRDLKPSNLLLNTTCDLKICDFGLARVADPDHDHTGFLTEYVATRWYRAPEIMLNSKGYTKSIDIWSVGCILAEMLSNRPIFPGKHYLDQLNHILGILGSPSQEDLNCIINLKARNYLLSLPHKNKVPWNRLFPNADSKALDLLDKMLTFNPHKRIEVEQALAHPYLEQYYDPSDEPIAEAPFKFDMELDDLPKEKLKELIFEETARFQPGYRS
T4 sequence (P48730 whole entry, species assumed): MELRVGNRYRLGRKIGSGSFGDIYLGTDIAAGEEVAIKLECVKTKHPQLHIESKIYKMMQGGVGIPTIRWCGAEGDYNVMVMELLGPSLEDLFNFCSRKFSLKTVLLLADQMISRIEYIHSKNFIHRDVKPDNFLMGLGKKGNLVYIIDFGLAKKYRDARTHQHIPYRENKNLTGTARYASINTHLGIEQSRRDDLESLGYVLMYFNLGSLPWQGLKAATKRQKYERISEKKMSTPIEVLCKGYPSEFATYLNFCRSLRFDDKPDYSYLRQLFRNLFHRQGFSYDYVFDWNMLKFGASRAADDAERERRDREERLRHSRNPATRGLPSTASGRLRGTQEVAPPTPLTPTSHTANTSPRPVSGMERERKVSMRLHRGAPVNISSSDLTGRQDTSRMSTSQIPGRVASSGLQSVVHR

Row | SMILES | ΔTm at 20 µM (GSK3B) [°C] | Mean NFκB response ([1]; 1 µM, 1,5 h) | Mean NFκB response ([1]; 1 µM, 4,5 h) | Mean NFκB response ([1]; 1 µM, 7,5 h) | Mean NFκB response ([1]; 1 µM, 10,5 h) | Mean NFκB response ([1]; 1 µM, 13,5 h) | Mean NFκB response ([1]; 1 µM, 16,6 h) | Mean NFκB response ([1]; 1 µM, 19,5 h) | Mean NFκB response ([1]; 1 µM, 22,5 h) | Mean NFκB response ([1]; 1 µM, 3 h) | Mean NFκB response ([1]; 1 µM, 6 h) | Mean NFκB response ([1]; 1 µM, 9 h) | Mean NFκB response ([1]; 1 µM, 12 h) | Mean NFκB response ([1]; 1 µM, 15 h) | Mean NFκB response ([1]; 1 µM, 18 h) | Mean NFκB response ([1]; 1 µM, 21 h) | Mean NFκB response ([1]; 1 µM, 24 h) | ΔTm at 20 µM (AURKA) [°C] | Apoptosis induction [AI] (HEK293T cells [2]) | ΔTm at 20 µM (MAPK1) [°C] | further results
1 | Oc1ccc(-c2c(-c3ccccc3)nn3c(C(F)(F)F)cc(C(F)(F)F)nc23)cc1 [PHTPP] | -0.0558 | 2680.27 GFP+-cells/confluence ∙ 1000 | 3558.89 GFP+-cells/confluence ∙ 1000 | 8794.33 GFP+-cells/confluence ∙ 1000 | 18394.67 GFP+-cells/confluence ∙ 1000 | 26267.00 GFP+-cells/confluence ∙ 1000 | 32070.00 GFP+-cells/confluence ∙ 1000 | 36033.33 GFP+-cells/confluence ∙ 1000 | 39210.00 GFP+-cells/confluence ∙ 1000 | 2926.71 GFP+-cells/confluence ∙ 1000 | 4822.41 GFP+-cells/confluence ∙ 1000 | 14065.00 GFP+-cells/confluence ∙ 1000 | 22714.33 GFP+-cells/confluence ∙ 1000 | 29343.33 GFP+-cells/confluence ∙ 1000 | 34043.33 GFP+-cells/confluence ∙ 1000 | 37940.00 GFP+-cells/confluence ∙ 1000 | 40376.67 GFP+-cells/confluence ∙ 1000 | -0.53 | 0.81 and 1.09 and 0.92 and 1.05 and 0.26 and 0.21 | -0.2 | ΔTm at 20 µM (CSNK1D): 0.39 °C; Growth rate [GR] (HEK293T cells [3]): 0.97 and 0.45 and 1.07 and 1.62 and 1.13 and 0.53 and 1.06 and 0.18 and 2.38 and 3.71; VP16 control [fold reporter gene activity] (Gal4-VP16): 0.97 fold reporter gene activity and 1.04 fold reporter gene activity and 1.08 fold reporter gene activity; Necrosis induction [NI] (HEK293T cells [4]): 1.05 and 0.87 and 0.89 and 1.10; ΔTm at 20 µM (ABL1): 2.06 °C; ΔTm at 20 µM (TRIM24): -0.6 °C; ΔTm at 20 µM (CDK2): 0.46 °C; activity at 1 µM ([5]; Homo sapiens, HeLa, 1 µM, single replicates n=1 to n=5, read-out: ER stress [rel. ATF6 activity]): 100%; ΔTm at 20 µM (BRD4): -1.27 °C; Metabolic activity [MA] (HEK293T cells [6]): 1.07 and 1.08 and 1.01 and 1.13 and 1.04 (2×) and 0.95 and 1.05; ΔTm at 20 µM (BRPF1): -1.38 °C; ΔTm at 20 µM (FGFR3): 1.15 °C
2 | N#CC(Cc1ccc(O)cc1)c1ccc(O)cc1 (stereo not shown) [Diarylpropionitrile] | 0.0529 | 3165.75 GFP+-cells/confluence ∙ 1000 | 4108.72 GFP+-cells/confluence ∙ 1000 | 9286.59 GFP+-cells/confluence ∙ 1000 | 18231.50 GFP+-cells/confluence ∙ 1000 | 25916.56 GFP+-cells/confluence ∙ 1000 | 31500.03 GFP+-cells/confluence ∙ 1000 | 35046.16 GFP+-cells/confluence ∙ 1000 | 38151.13 GFP+-cells/confluence ∙ 1000 | 3363.39 GFP+-cells/confluence ∙ 1000 | 5664.74 GFP+-cells/confluence ∙ 1000 | 14005.24 GFP+-cells/confluence ∙ 1000 | 22519.63 GFP+-cells/confluence ∙ 1000 | 29221.60 GFP+-cells/confluence ∙ 1000 | 33392.36 GFP+-cells/confluence ∙ 1000 | 36386.11 GFP+-cells/confluence ∙ 1000 | 39415.66 GFP+-cells/confluence ∙ 1000 | 0.16 | 0.70 and 1.46 and 0.65 and 1.11 and 1.49 and 0.58 | 0.0328 | NF-κB activity (inflammatory response to ionomycin/PMA) ([1]; HEK293 NF-κB reporter cells, compounds at recommended concentrations, imaged over 24 h, n = 3): no impact on NF-κB activity; ΔTm at 20 µM (CSNK1D): 0.0747 °C; Growth rate [GR] (HEK293T cells [3]): 0.79 (2×) and 0.00 (2×) and 0.84 and 1.00 and 0.91 and 0.88 and 1.61 and 5.04; Necrosis induction [NI] (HEK293T cells [4]): 1.10 and 0.85 and 0.90 and 1.44; ΔTm at 20 µM (ABL1): 0.17 °C; ΔTm at 20 µM (TRIM24): 0.03 °C; ΔTm at 20 µM (CDK2): 0.74 °C; ATF6 activity (tunicamycin-induced endoplasmic reticulum stress) ([5]; Hela ATF6 reporter cells, tunicamycin 100 ng/mL, 18 h, compounds at recommended concentrations, n = 5): failed to reduce ATF6 activity; ΔTm at 20 µM (BRD4): 0.26 °C; Metabolic activity [MA] (HEK293T cells [6]): 1.05 and 0.99 and 0.90 and 1.01 and 1.03 and 0.93 and 1.00 and 1.10; ΔTm at 20 µM (BRPF1): -1.46 °C; ΔTm at 20 µM (FGFR3): 0.51 °C
